Measured values reported in PubChem BioAssay (NCI).
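Grown in 96-well plates, cells were treated for 48 hours with each compound at five concentrations. Insufficient inhibition: endpoint recorded as highest concentration tested. GI50 is the concentration that inhibits growth by half. TGI: concentration producing complete growth inhibition.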

How the values were obtained:
Test in all cases: NCI anticancer screen, dose series, 48 h
CCRF-CEM leukemia = tested on: CCRF-CEM leukemia
OVCAR-4 ovarian = tested on: OVCAR-4 ovarian
A498 renal = tested on: A498 renal
HCT-116 colon = tested on: HCT-116 colon
ACHN renal = tested on: ACHN renal
UACC-257 melanoma = tested on: UACC-257 melanoma
HOP-62 NSCLC = tested on: HOP-62 NSCLC
HOP-92 NSCLC = tested on: HOP-92 NSCLC
786-0 renal = tested on: 786-0 renal
SF-539 CNS = tested on: SF-539 CNS

| SMILES | GI50 (CCRF-CEM leukemia) [µM] | TGI (CCRF-CEM leukemia) [µM] | GI50 (OVCAR-4 ovarian) [µM] | TGI (OVCAR-4 ovarian) [µM] | GI50 (A498 renal) [µM] | TGI (A498 renal) [µM] | GI50 (HCT-116 colon) [µM] | TGI (HCT-116 colon) [µM] | GI50 (ACHN renal) [µM] | TGI (ACHN renal) [µM] | GI50 (UACC-257 melanoma) [µM] | TGI (UACC-257 melanoma) [µM] | GI50 (HOP-62 NSCLC) [µM] | TGI (HOP-62 NSCLC) [µM] | GI50 (HOP-92 NSCLC) [µM] | TGI (HOP-92 NSCLC) [µM] | GI50 (786-0 renal) [µM] | TGI (786-0 renal) [µM] | GI50 (SF-539 CNS) [µM] | TGI (SF-539 CNS) [µM] |
| --- | --- | --- | --- | --- | --- | --- | --- | --- | --- | --- | --- | --- | --- | --- | --- | --- | --- | --- | --- | --- |
| CC(=O)OCC1OC(O[C@@H]2C[C@H]3C(C)(C)[C@H](OC(C)=O)CC[C@]3(C)[C@H]3CC[C@@H]4[C@]5(CC[C@@]4(C)[C@@]32C)O[C@@H]([C@H](O)C(C)(C)O)C[C@@H]5C)C(O)C(O)C1O (some centres not stated) | 3.16 | 20 | 3.35 | 16.4 | 11.7 | 25.9 | 3.81 | 15.1 | 9.23 | 21.3 | 11.4 | 24 | 14.2 | 27.3 | 10 | 21.6 | 8.79 | 21.9 | – | – |
| C=C1C(=O)O[C@H]2[C@H](OC(C)=O)[C@@H](C)CCC/C(C)=C/CC[C@]3(CO3)[C@H](O)C[C@@H]12 | 1.87 | 4.77 | 6.89 | 21.9 | 16.9 | 33.4 | – | – | 2.3 | 4.17 | 12.4 | 26.1 | – | – | 2.11 | 6.75 | 3.65 | 14.1 | 3.2 | 9.27 |
| COc1cc(C(N)=O)c(OC)c(OC)c1OC | – | > 100 | – | > 100 | – | > 100 | – | > 100 | – | > 100 | – | – | – | > 100 | – | > 100 | – | > 100 | – | > 100 |
| ClCc1ccc(Cn2cnc3ncnc(Cl)c32)cc1 | – | – | – | – | 1.81 | 3.37 | – | – | – | – | 1.57 | 3.48 | 1.78 | 3.16 | 1.17 | 2.52 | 1.68 | 3.05 | 2.08 | 3.74 |
| O=[N+]([O-])C(=C(c1ccccc1)c1ccccc1)[N+](=O)[O-] | – | 22.1 | – | 28.6 | – | 28.6 | – | 26.3 | – | 25.5 | – | 25.8 | – | – | – | – | – | 27.7 | – | 26.5 |
| CC(=O)Nc1[nH]c(=O)[nH]c(=O)c1N(C(C)=O)C(C)=O | – | > 100 | – | > 100 | – | > 100 | – | > 100 | – | > 100 | – | > 100 | – | – | – | > 100 | – | > 100 | – | > 100 |
| Cc1nc(Nc2ccc([N+](=O)[O-])cc2)sc1C(=O)/C=C/c1ccc(N(C)C)cc1 | – | > 100 | – | – | – | > 100 | – | – | – | > 100 | – | > 100 | – | > 100 | – | > 100 | – | > 100 | – | > 100 |
| O=C(O)CNS(=O)(=O)c1ccc(NC(=O)c2cccc([N+](=O)[O-])c2)cc1 | – | > 100 | – | > 100 | – | > 100 | – | – | – | > 100 | – | > 100 | – | – | – | > 100 | – | > 100 | – | > 100 |
| OCC(O)C(OC1OC(CO)C(O)C(O)C1O)c1nn(-c2ccc(F)cc2)c2nc3cc(Cl)c(Cl)cc3cc12 (configuration not stated) | – | > 100 | – | > 100 | – | > 100 | – | > 100 | – | > 100 | – | > 100 | – | > 100 | – | – | – | > 100 | – | > 100 |
| O=C1C=Cc2noc3cccc1c23 | – | 5.35 | – | 4.82 | – | 27.5 | – | 4.47 | – | 7.85 | – | 26.4 | – | – | – | 5.22 | – | 20.7 | – | 30.2 |
| COCCn1cc(-c2csc(-c3c[nH]c4ccc(F)cc34)n2)c2cccnc21 | – | – | 2.59 | > 100 | 3.26 | 9.4 | 3.77 | > 100 | 5.27 | > 100 | – | – | 2.02 | > 100 | 6.28 | > 100 | 5.12 | > 100 | 8.86 | > 100 |
